Data on 34 compounds can be found in US8293768B2, “Organic compounds” (Novartis AG, priority 2006, dated 2012).

`Cc1nc(N2CCN(Cc3ccccc3)C2=O)sc1C(=O)NCc1ccc(F)cc1` [Example 9, 2-(3-benzyl-2-oxoimidazolidin-1-yl)-N-(4-fluorobenzyl)-4-methylthiazole-5-carboxamide] came in with a melting point of 147 to 148 °C. Under `Cc1nc(N2CCN(Cc3ccccc3)C2=O)sc1C(=O)NCc1ccccc1F` [Example 9.1, 2-(3-benzyl-2-oxoimidazolidin-1-yl)-N-(2-fluorobenzyl)-4-methylthiazole-5-carboxamide] stands 167 to 168 °C; under `Cc1nc(N2CCN(Cc3ccccc3)C2=O)sc1C(=O)NCc1cc(F)ccc1F` [Example 9.2, 2-(3-benzyl-2-oxoimidazolidin-1-yl)-N-(2,5-difluorobenzyl)-4-methylthiazole-5-carboxamide], 176 to 177 °C; under `Cc1nc(N2CCN(Cc3ccccc3)C2=O)sc1C(=O)NCc1cc(F)cc(F)c1` [Example 9.3, 2-(3-benzyl-2-oxoimidazolidin-1-yl)-N-(3,5-difluorobenzyl)-4-methylthiazole-5-carboxamide], 208 to 209 °C. Under `Cc1nc(N2CCN(Cc3ccccc3)C2=O)sc1C(=O)NCc1ccc(F)cc1F` [Example 9.4, 2-(3-benzyl-2-oxoimidazolidin-1-yl)-N-(2,4-difluorobenzyl)-4-methylthiazole-5-carboxamide] stands 157 to 158 °C. Under `Cc1nc(N2CCN(Cc3ccccc3)C2=O)sc1C(=O)NCc1ccc(F)c(F)c1` [Example 9.5, 2-(3-benzyl-2-oxoimidazolidin-1-yl)-N-(3,4-difluorobenzyl)-4-methylthiazole-5-carboxamide] stands 152 to 153 °C; under `Cc1nc(N2CCN(Cc3ccccc3)C2=O)sc1C(=O)NCc1cccc(Cl)c1` [Example 9.6, 2-(3-benzyl-2-oxoimidazolidin-1-yl)-N-(3-chlorobenzyl)-4-methylthiazole-5-carboxamide], 178 to 179 °C. As to `Cc1nc(N2CCN(Cc3ccccc3)C2=O)sc1C(=O)NCc1cccnc1` [Example 9.7, 2-(3-benzyl-2-oxoimidazolidin-1-yl)-4-methyl-N-(pyridin-3-ylmethyl)thiazole-5-carboxamide], the melting point fell in the range of 153 to 154 °C.

Consider `Cc1nc(N2CCN(Cc3ccccc3)C2=O)sc1C(=O)NCc1ccncc1` [Example 9.9, 2-(3-benzyl-2-oxoimidazolidin-1-yl)-4-methyl-N-(pyridin-4-ylmethyl)thiazole-5-carboxamide], for which the melting point fell in the range of 96 to 97 °C. Under `Cc1ccc(CNC(=O)c2sc(N3CCN(Cc4ccccc4)C3=O)nc2C)o1` [Example 9.10, 2-(3-benzyl-2-oxoimidazolidin-1-yl)-4-methyl-N-((5-methylfuran-2-yl)methyl)thiazole-5-carboxamide] stands 138 to 139 °C. Under `Cc1nc(N2CCN(CCc3ccccc3)C2=O)sc1C(=O)NCc1ccccc1` [Example 9.11, N-benzyl-4-methyl-2-(2-oxo-3-phenethylimidazolidin-1-yl)thiazole-5-carboxamide] stands 156 to 157 °C. Under `Cc1nc(N2CCN(Cc3ccc(C(F)(F)F)cc3)C2=O)sc1C(=O)NCc1cccnc1` [Example 9.12, 4-methyl-2-(2-oxo-3-(4-(trifluoromethyl)benzyl)imidazolidin-1-yl)-N-(pyridin-3-ylmethyl)thiazole-5-carboxamide] stands 107 to 108 °C; under `Cc1nc(N2CCN(Cc3ccc(C(F)(F)F)cc3)C2=O)sc1C(=O)NCc1ccccc1` [Example 9.13, N-benzyl-4-methyl-2-(2-oxo-3-(4-(trifluoromethyl)benzyl)imidazolidin-1-yl)thiazole-5-carboxamide], 127 to 128 °C; under `Cc1nc(N2CCN(CC3CC3)C2=O)sc1C(=O)NCc1ccccc1` [Example 9.14, N-benzyl-2-(3-(cyclopropylmethyl)-2-oxoimidazolidin-1-yl)-4-methylthiazole-5-carboxamide], 142 to 143 °C.

As to `Cc1nc(N2CCN(CC3CC3)C2=O)sc1C(=O)NCc1ccc(F)cc1` [Example 9.15, 2-(3-(cyclopropylmethyl)-2-oxoimidazolidin-1-yl)-N-(4-fluorobenzyl)-4-methylthiazole-5-carboxamide], the melting point lay within 146 to 147 °C. Under `Cc1nc(N2CCN(CCC3CC3)C2=O)sc1C(=O)NCc1ccccc1` [Example 9.17, N-benzyl-2-(3-(2-cyclopropylethyl)-2-oxoimidazolidin-1-yl)-4-methylthiazole-5-carboxamide] stands 137 to 138 °C. With `Cc1nc(N2CCN(CCC3CC3)C2=O)sc1C(=O)NCc1ccc(F)cc1` [Example 9.18, 2-(3-(2-cyclopropylethyl)-2-oxoimidazolidin-1-yl)-N-(4-fluorobenzyl)-4-methylthiazole-5-carboxamide], the melting point lay within 122 to 123 °C. Under `Cc1nc(N2CCN(Cc3ccc(F)cc3)C2=O)sc1C(=O)NCc1ccc(F)cc1` [Example 9.20, N-(4-fluorobenzyl)-2-(3-(4-fluorobenzyl)-2-oxoimidazolidin-1-yl)-4-methylthiazole-5-carboxamide] stands 177 to 178 °C; under `Cc1nc(N2CCN(Cc3ccc(F)cc3)C2=O)sc1C(=O)NCc1ccccc1` [Example 9.21, N-benzyl-2-(3-(4-fluorobenzyl)-2-oxoimidazolidin-1-yl)-4-methylthiazole-5-carboxamide], 192 to 193 °C; under `Cc1nc(N2CCN(Cc3ccc(OC(F)(F)F)cc3)C2=O)sc1C(=O)NCc1cccnc1` [Example 9.22, 4-methyl-2-(2-oxo-3-(4-(trifluoromethoxy)benzyl)imidazolidin-1-yl)-N-(pyridin-3-ylmethyl)thiazole-5-carboxamide], 165 to 166 °C.

With `Cc1nc(N2CCN(Cc3ccc(OC(F)(F)F)cc3)C2=O)sc1C(=O)NCc1ccccc1` [Example 9.23, N-benzyl-4-methyl-2-(2-oxo-3-(4-(trifluoromethoxy)benzyl)imidazolidin-1-yl)thiazole-5-carboxamide], the melting point lay in the range of 197 to 198 °C. Compound `Cc1nc(N2CCN(Cc3ccc(OC(F)F)cc3)C2=O)sc1C(=O)NCc1cccnc1` [Example 9.24, 2-(3-(4-(difluoromethoxy)benzyl)-2-oxoimidazolidin-1-yl)-4-methyl-N-(pyridin-3-ylmethyl)thiazole-5-carboxamide] yielded a melting point of 166 to 167 °C. Under `Cc1nc(N2C[C@@H](Cc3ccccc3)NC2=O)sc1C(=O)NCc1ccccc1` [Example 9.25, (R)—N-benzyl-2-(4-benzyl-2-oxoimidazolidin-1-yl)-4-methylthiazole-5-carboxamide] stands 212 to 214 °C; under `Cc1nc(N2CCN(CCC3CC3)C2=O)sc1C(=O)NCc1cccnc1` [Example 9.26, 2-(3-(2-cyclopropylethyl)-2-oxoimidazolidin-1-yl)-4-methyl-N-(pyridin-3-ylmethyl)thiazole-5-carboxamide], 146 to 147 °C; under `Cc1nc(N2CCN(CCCc3ccccc3)C2=O)sc1C(=O)NCc1cccnc1` [Example 9.27, 4-methyl-2-(2-oxo-3-(3-phenylpropyl)imidazolidin-1-yl)-N-(pyridin-3-ylmethyl)thiazole-5-carboxamide], 127 to 128 °C. Under `Cc1nc(N2CCN(Cc3ccc(Cl)cc3)C2=O)sc1C(=O)NCc1cccnc1` [Example 9.28, 2-(3-(4-chlorobenzyl)-2-oxoimidazolidin-1-yl)-4-methyl-N-(pyridin-3-ylmethyl)thiazole-5-carboxamide] stands 178 to 179 °C.

As for `Cc1nc(N2CCN(Cc3ccc(OC(F)(F)F)cc3)C2=O)sc1C(=O)NC[C@H](O)c1ccccc1` [Example 9.29, (R)—N-(2-hydroxy-2-phenylethyl)-4-methyl-2-(2-oxo-3-(4-(trifluoromethoxy)benzyl)imidazolidin-1-yl)thiazole-5-carboxamide], the melting point fell in the range of 149 to 151 °C. Under `Cc1nc(N2CCN(Cc3ccc(OC(F)(F)F)cc3)C2=O)sc1C(=O)Nc1ccccc1` [Example 9.30, 4-methyl-2-(2-oxo-3-(4-(trifluoromethoxy)benzyl)imidazolidin-1-yl)-N-phenylthiazole-5-carboxamide] stands 187 to 188 °C; under `Cc1nc(N2CCN(Cc3ccc(OC(F)(F)F)cc3)C2=O)sc1C(=O)NCCc1ccccc1` [Example 9.31, 4-methyl-2-(2-oxo-3-(4-(trifluoromethoxy)benzyl)imidazolidin-1-yl)-N-phenethylthiazole-5-carboxamide], 184 to 185 °C; under `Cc1nc(N2CCN(Cc3ccc(OC(F)(F)F)cc3)C2=O)sc1C(=O)NCCc1cccnc1` [Example 9.32, 4-methyl-2-(2-oxo-3-(4-(trifluoromethoxy)benzyl)imidazolidin-1-yl)-N-(2-(pyridin-3-yl)ethyl)thiazole-5-carboxamide], 172 to 173 °C. Under `Cc1cnc(CNC(=O)c2sc(N3CCN(Cc4ccc(C(F)(F)F)cc4)C3=O)nc2C)cn1` [Example 9.33, 4-methyl-N-((5-methylpyrazin-2-yl)methyl)-2-(2-oxo-3-(4-(trifluoromethyl)benzyl)imidazolidin-1-yl)thiazole-5-carboxamide] stands 172 to 173 °C; under `Cc1cnc(CNC(=O)c2sc(N3CCN(CC4CC4)C3=O)nc2C)cn1` [Example 9.34, 2-(3-(cyclopropylmethyl)-2-oxoimidazolidin-1-yl)-4-methyl-N-((5-methylpyrazin-2-yl)methyl)thiazole-5-carboxamide], 161 to 163 °C; under `Cc1nc(N2CCN(CC3CCCCC3)C2=O)sc1C(=O)NCc1cccnc1` [Example 9.35, 2-(3-(cyclohexylmethyl)-2-oxoimidazolidin-1-yl)-4-methyl-N-(pyridin-3-ylmethyl)thiazole-5-carboxamide], 134 to 136 °C. Under `Cc1nc(N2CCN(CC3CCCCO3)C2=O)sc1C(=O)NCc1cccnc1` (stereo not shown) [Example 9.36, 4-methyl-2-(2-oxo-3-((tetrahydro-2H-pyran-2-yl)methyl)imidazolidin-1-yl)-N-(pyridin-3-ylmethyl)thiazole-5-carboxamide] stands 174 to 175 °C.
